# Experimental data from US8680129B2, “Compounds, composition, methods, targets for cancer therapy” (priority 2008, dated 2014).
# Like-named read-outs stand apart in the source and are kept apart here.
# Key:
# [1] = system: UM-SCC6, HT1080, Cal27, SK-Mel-5, and HEKa cells; test: WST-3 or apigenin alone, cell viability, all tested lines; format: cell-based, human; details: 50 µM WST-3 or 30 μM apigenin alone, 4 hours then 24 hours
# Protocol: (§1) Method: UM-SCC6, HT1080, Cal27, SK-Mel-5, and HEKa cells were treated with 50 or 100 μM WST-3 or 10 or 30 μM apigenin alone, or combination of WST-3 and apigenin at different concentrations for 4 hours with untreated cells as control, then, changed to normal growth medium and remained culture in this medium for another 24 hours. After the 24 hours culture, cell viabilities were measured with CCK8 Kit. Data were normalized to % of untreated control cells.
# [2] = system: ROS generation in UM-SCC6 cells; test: Dose response of ROS generation (CM-H2-DCFDA fluorescence); format: cell-based, human
# Protocol: Method: UM-SCC6 cells were labeled with 10 μM CM-H2-DCFDA for 15 minutes and then treated with WST-1r or CCK8 at the indicated amounts in combination with variable doses of apigenin (A) or IKK Inhibitor III (B) for 4 hours. Fluorescence at Ex485/Em535 were measured for detecting ROS generation that labeled by the CM-H2-DCFDA.
# MDA-MB-231 cells = test: WST-1r and apigenin dose-response, cell viability by CCK8; format: cell-based
# Protocol: (§2) Method: UM-SCC6, MDA-MB-231, Cal27, HT1080, T294, B6-5 and A431 cells were treated with 3% or 10% of WST-1r or 10, 30, or 100 μM apigenin or combination of variable concentrations of WST-1r with apigenin in parallel with untreated control cells and DMSO control for 4 hours, then, the treatments were removed and the cells, thus, treated were changed to normal growth medium and maintained in culture for another 24 hours. DMSO was used as vehicle control. Cell viabilities were measured by CCK8 Kit and normalized to % of untreated control calls.
# A431 cells = test: as above; format: cell-based
# Protocol: as §2
# UM-SCC6 cells [3] = test: mPMS dose-response with WST-1c and apigenin, cell viability; format: cell-based, human; details: mPMS variable with 1 mM WST-1c and 10, 30 or 100 μM apigenin
# Protocol: (§3) Method: A & B: HT1080 (FIG. 16A) and UM-SCC6 (FIG. 16B) cells were treated with variable concentrations of mPMS as indicated in combination with 1 mM WST-1c and 10, 30 or 100 μM apigenin for 4 hours and, then, changed to normal growth medium for another 24 hours. Cell viabilities were measured by CCK8 Kit. 1 mM WST-1 only, 0.12 mM mPMS only and 10% WST-1r were used as parallel control. AP 0: Untreated Control, AP 10: 10 μM Apigenin, AP 30: 30 μM Apigenin, AP 100: 100 μM Apigenin.
# HT1080 cells [4] = test: as above; format: cell-based, human; details: mPMS variable with 1 mM WST-1c and 10, 30 or 100 μM apigenin
# Protocol: as §3
# [5] = system: UM-SCC6, Cal27 and HEKa cells; test: Modified WST-1r and Apigenin, cancer versus non-cancer cells, single agents; format: cell-based, human; details: 10% modified WST-1r (mPMS 20 μM, WST-1c 1 mM) or Apigenin 30 or 100 μM, 4 hours then 24 hours
# Protocol: Comparison of cell responses to modified WST-1r and Apigenin combination treatment between cancer cells and non-cancer cells. UM-SCC6, Cal27 human head and neck cancer cell lines and primary cultured human […] keratinocytes (HEKa) as labeled were treated with 10% modified WST-1r (mPMS 20 μM, WST-1c 1 mM) with (WST-1r 10) or without (WST-1r 0) 10% modified WST-1r in combination with 0 (Apigenin 0), 30 (Apigenin 30) or 100 (Apigenin 100) μM Apigenin for 4 hours, then, changed to apigenin in the corresponding concentrations for another 24 hours.
# [6] = system: phosphorylated JNK in UM-SCC6 cells; test: JNK phosphorylation (FACE Kit); format: cell-based, human; details: 4 hours
# Protocol: Method: UM-SCC6 cells were treated with WST-1r and apigenin at the indicated doses for 4 hours, and then phosphorylated JNK and total JNK were measured in parallel with FACE Kit (Qiogen). The resulting data were normalized to total cell number measured by crystal violet staining The phosphorylated JNK from each measurement were normalized to the ratio of phosphorylated JNK over total JNK values.
# non cancer HEKa cells = test: WST-3 with apigenin, cell viability by CCK8; format: cell-based, human; details: for cell death, single agent: apigenin or WST-3 alone
# Protocol: as §1
# SK-Mel-5 cells = test: WST-3 with apigenin, cell viability by CCK8; format: cell-based, human; details: for cell death, single agent: apigenin or WST-3 alone
# Protocol: as §1
# UM-SCC6 cells [7] = test: CCK8, XTT, WST-1r comparison in combination with apigenin, cell viability; format: cell-based, human; details: for IC50: Homo sapiens, read-out: Apigenin 1050
# Protocol: Method: HT1080 and UM-SCC6 cells were treated with 10% of WST-1r, CCK8 or XTT in combination with variable doses of apigenin for 4 hours and, then changed to normal growth medium for another 24 hours. Cell viability was measured with CCK8 kit.
# UM-SCC-6 cells = test: pUC19 DNA transfection plus chemotherapeutic drug, cell viability; format: cell-based, human; details: for IC50 of Cis-Platinum: UM-SCC-6 cells; for IC50: Homo sapiens, read-out: IC50 of 5-FU
# Protocol: UM-SCC-6 cells were transfected with pUC19 DNA, pcDNA3, pUC19+pcDNA3, IKK1-KA+pUC19, IKK2-KA+pUC19, and IKK1-KA+IKK2-KA+pUC19, IKK1-KA+pcDNA3, IKK2-KA+pcDNA3, or IKK1-KA+IKK2-KA+pcDNA3, for 48 hours and, treated with variable doses of 5-FU (FIG. 6A) or Cis-Platinum (FIG. 6B) for […] respectively. Cell viabilities were measured in 72 and 96 hours respectively after drug treatment.
# HT1080 cells [8] = test: as above; format: cell-based, human; details: for IC50 of Cis-Platinum: HT1080 cells
# Protocol: HT1080 Cells were transfected with pUC19 DNA, pcDNA3, pUC19+pcDNA3, IKK1-KA+pUC19, IKK2-KA+pUC19, and IKK1-KA+IKK2-KA+pUC19, IKK1-KA+pcDNA3, IKK2-KA+pcDNA3, or IKK1-KA+IKK2-KA+pcDNA3, for 48 hours before the treatment of chemotherapy drugs at various doses. Cell viability was measured in 72 and 96 hours after drug treatment.
# Drug treatment: Cis-Platinum 30 ng/ml-3 μg/ml (FIG. 6D), Paclitaxel 1 nM-10 μM (FIG. 6C), 5-FU 50 nM-500 μM (data not shown), Doxorubicin 30 nM-3.3 μM (data not shown).
# HT1080 cells [9] = test: siRNA or Puc19 transfection combined with Taxel, cell viability by CCK8; format: cell-based, human; details: 72 hours after the treatment
# Protocol: Method: HT1080 cells transfected with siRNAs that were derived from Puc19 DNA sequence and the siRNAs that targeting the corresponding genes that are the targets of the Puc19 derived siRNAs for 24 hours, then, treated with Taxel at 3, 10, 30, and 100 nM for 48 hours. After the 48 hours of Taxel treatment, cells in culture were changed to normal growth medium for 24 to 72 hours. Cell viability was monitored by CCK8 Kit every 24 hours. Data are normalized to % of untreated control cells. The siRNAs that used for this study includes siRNA#1, siRNA#2, siRHA#3, siRNA targeting TRPC6, SH3PXD2B, C6orf108, TTBK1, MAGI3, and TMEM182 as well as combination of siRNA#2+#3, and siRNA#1+#2+#3+#4+#5 (siRNAΣ1-5).
# UM-SCC6 cells [10] = test: Other tetrazolium salts as substitutes of WST-1r with apigenin, cell viability; format: cell-based, human; details: 1 mM WST-1, 0.4 mM WST-3, 0.5 mM WST-4, 0.5 mM WST-5, 0.12 mM mPMS; apigenin 10, 30 or 100 μM; 4 hours then 24 hours
# Protocol: (§4) Method: HT1080 and UM-SCC6 cells were treated with 1 mM WST-1, 0.4 mM WST-3, 0.5 mM WST-4, 0.5 mM WST-5 or 0.12 mM mPMS alone or each of the WST-3, WST-4, and WST-5 at the same concentration in combination with 0.12 mM mPMS (0.4 mM WST-3+0.12 mM mPMS, 0.5 mM WST-4+0.12 mM mPMS, 0.5 mM WST-5+0.12 mM mPMS) plus 10, 30 or 100 μM apigenin for 4 hours and, then changed to normal growth medium for another 24 hours. Cell viability was measured with CCK8 Kit.
# HT1080 cells [11] = test: as above; format: cell-based, human; details: 1 mM WST-1, 0.4 mM WST-3, 0.5 mM WST-4, 0.5 mM WST-5, 0.12 mM mPMS; apigenin 10, 30 or 100 μM; 4 hours then 24 hours
# Protocol: as §4
# [12] = 4 hours, then 24 hours normal medium, combination 3% WST-1r with 100 μM apigenin or 10% WST-1r with 30 μM apigenin
# [13] = combination of 30 μM apigenin and WST-3
structure (smiles),measurement,setting,value
"O=c1cc(-c2ccc(O)cc2)oc2cc(O)cc(O)c12 [Apigenin, 4H-1-benzopyran-4-one,5,7-dihydroxy-2-(4-hydroxy-phenyl)-(9CI)]","cell death, single agent",[1],no or limited effect of cell death
same,"ROS generation, agent alone",[2]; 4 hours,no effect on ROS generation
same,ROS generation,"[2]; apigenin combined with CCK8, apigenin dose dependent",increase the ROS generation
same,cell death / cell survival,MDA-MB-231 cells; [12],little effect on cell survival
same,IC50,"MDA-MB-231 cells; Homo sapiens, MDA-MB-231, in the presence of 10% WST-1r",10 µM
same,cell death / cell survival,A431 cells; [12],little effect on cell survival
same,IC50,"A431 cells; Homo sapiens, A-431, in the presence of 10% WST-1r",10 µM
same,cell death,UM-SCC6 cells [3],dose dependent cell death
same,cell death,HT1080 cells [4],dose dependent cell death
same,"cell viabilities, single agent treatment",[5],little effect on cell viabilities
same,phosphorylation of JNK (ratio phosphorylated over total JNK),[6],dose dependent induction of phosphorylation of JNK
same,"cell death, single agent",non cancer HEKa cells,limited cell death
same,"cell death, single agent",SK-Mel-5 cells,dose dependent but limited cell death
same,Apigenin 1050,UM-SCC6 cells [7]; CCK8+apigenin,did not reached 1050
same,IC50,UM-SCC6 cells [7]; 10% WST-1r treated UM-SCC6 cells,5 µM
same,IC50,UM-SCC6 cells [7]; 10% XTT treated UM-SCC6 cells,25 µM
same,Apigenin 1050,UM-SCC6 cells [7]; apigenin only,did not reached 1050
"N.N.[Cl][Pt][Cl] [Cis-Platinum, cis-diamminedichloroplatinum]",IC50 of Cis-Platinum,UM-SCC-6 cells; pUC19 transfected,1 µg/mL
same,IC50 of Cis-Platinum,UM-SCC-6 cells; untransfecte control,3 µg/mL
same,IC50 of Cis-Platinum,HT1080 cells [8]; pUC19 transfected,0.3 µg/mL
same,IC50 of Cis-Platinum,HT1080 cells [8]; untransfecte control,3 µg/mL
same,untransfected cells at 96 hours after drug treatment,HT1080 cells [8],recovered and grown up
CC(=O)O[C@H]1C(=O)[C@@]2(C)[C@H]([C@H](OC(=O)c3ccccc3)[C@]3(O)C[C@H](OC(=O)[C@H](O)[C@@H](NC(=O)c4ccccc4)c4ccccc4)C(C)=C1C3(C)C)[C@]1(OC(C)=O)CO[C@@H]1C[C@@H]2O [Paclitaxel],IC50,"HT1080 cells [9]; Homo sapiens, HT-1080, Contrl (untransfected)",0.06 µM
same,cell survival / cell death,HT1080 cells [9]; Taxel 3-100 nM,dose dependent cell death
same,IC50,"HT1080 cells [8]; Homo sapiens, HT-1080, pUC19 transfected HT1080 cells, read-out: IC50 of texal",0.02 µM
same,response to texal,HT1080 cells [8]; untransfected HT1080 cells,did not show any response upto 100 nM
same,untransfected cells at 96 hours after drug treatment,HT1080 cells [8],recovered and grown up
"O=[N+]([O-])c1ccc(-[n+]2nc(-c3ccc(S(=O)(=O)[O-])cc3S(=O)(=O)[O-])nn2-c2ccc(I)cc2)c([N+](=O)[O-])c1.[Na+] [WST-3, 2-(4-Iodophenyl)-3-(2,4-dinitrophenyl)-5-(2,4-disulfophenyl)-2H-tetrazolium, sodium salt]","cell death, single agent",[1],no or limited effect of cell death
same,"cell death, single agent",non cancer HEKa cells,limited cell death
same,IC50,non cancer HEKa cells; [13],40 µM
same,"cell death, single agent",SK-Mel-5 cells,dose dependent but limited cell death
same,IC50,SK-Mel-5 cells; [13],20 µM
same,WST-3 IC50 in SK-Mel-5 compared with HEKa cells,SK-Mel-5 cells; combination with 30 μM apigenin,one fold less than that from HEKa cells
"O=c1[nH]cc(F)c(=O)[nH]1 [5-FU, 5-fluoro-2,4-(1H,3H) pyrimidinedione]",IC50,UM-SCC-6 cells; pUC19 transfected UM-SCC6 cells,200 µM
same,IC50,UM-SCC-6 cells; untransfected UM-SCC6 cells,> 1000 µM
COc1cc(-c2ccc(-n3nc(-c4ccc(C(=O)N(CCS(=O)(=O)[O-])CCS(=O)(=O)[O-])cc4)n[n+]3-c3nc4ccccc4s3)c(OC)c2)ccc1-n1nc(-c2ccc(C(=O)N(CCS(=O)(=O)[O-])CCS(=O)(=O)[O-])cc2)n[n+]1-c1nc2ccccc2s1.[Na+].[Na+] [WST-5],synergistic effect on inducing cell death in combination with apigenin,UM-SCC6 cells [10],no such effect
same,synergistic effect on inducing cell death in combination with apigenin,HT1080 cells [11],no such effect
